Article PMC12147034, “Identification of alkynyl nicotinamide HSN748 as a RET solvent-front mutant inhibitor with intracranial efficacy” (RSC Medicinal Chemistry, 2025)

Test system: IMR-90 human lung fibroblasts
Test: Cell viability in IMR-90 fibroblasts (5 days)
Type: cell-based
Conditions: non-cancerous cells, Fig. S4
Procedure: The TEL-VEGFR2 cDNA was then subcloned into pLentP lentiviral vector.[21] and BaF3/TEL-VEGFR2 (B/TV) cells were generated by infecting BaF3 cells with the lentiviral TEL-VEGFR2 as described. Cell viability assay was performed using CellTiter-Glo reagent (G7573, Promega, Madison, WI, USA) after 3 days of drug treatment as described for BaF3-derived cells and 5 days for IMR-90 cells.
(A) IMR-90 normal human lung fibroblast cells were plated in 96-well plates and treated with indicated drugs for 5 days. (B) The non-transformed, IL-3-dependent BaF3 cells were cultured in medium with 0.5 nM mouse IL-3 in 96-well plates and treated as in (A) for 3 days. Viable cells were then determined using CellTiter-glo reagent. Data were from two triplicate experiments.
(1 picture or pasted object on this page, not shown here)

SMILES: CN1CCN(Cc2ccc(NC(=O)c3cncc(C#Cc4cnc5cccnn45)c3)cc2C(F)(F)F)CC1 [HSN748]
- inhibitory activity in IMR-90 human lung fibroblasts: little inhibitory activity
